The target of one test is Histone deacetylase 2 (Homo sapiens, UniProt Q92769). Briefly: Inhibition of recombinant human C-terminal GST-tagged HDAC2 (1 to 488 residues) expressed in baculovirus infected sf21 cells using RHK-K(Ac)-AMC as substrate after 60 mins by fluorimetry assay.
The target of another test is T1, Histone deacetylase 8 (Homo sapiens, UniProt Q9BY41).
T1 sequence (Q9BY41 whole entry): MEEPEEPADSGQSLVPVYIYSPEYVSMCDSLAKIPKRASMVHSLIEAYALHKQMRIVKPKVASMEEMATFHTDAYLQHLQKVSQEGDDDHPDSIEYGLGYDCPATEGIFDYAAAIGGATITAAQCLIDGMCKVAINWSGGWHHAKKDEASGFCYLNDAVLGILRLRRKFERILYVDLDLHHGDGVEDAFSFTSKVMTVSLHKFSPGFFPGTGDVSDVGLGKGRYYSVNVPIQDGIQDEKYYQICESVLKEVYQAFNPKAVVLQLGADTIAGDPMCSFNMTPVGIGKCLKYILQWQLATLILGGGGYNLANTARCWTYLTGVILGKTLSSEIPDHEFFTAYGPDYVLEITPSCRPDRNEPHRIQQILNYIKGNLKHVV
Briefly: Inhibition of recombinant C-terminal His-tagged and N-terminal Streptavidin2-tagged human HDAC8 (1 to 377 residues) expressed in baculovirus infected insect cells using RHK-K(Ac)-AMC as substrate after 60 mins by fluorescence assay.

Test [1] has as its target T2, Protein deacetylase HDAC6 (Homo sapiens, UniProt Q9UBN7).
T2 sequence (Q9UBN7 whole entry): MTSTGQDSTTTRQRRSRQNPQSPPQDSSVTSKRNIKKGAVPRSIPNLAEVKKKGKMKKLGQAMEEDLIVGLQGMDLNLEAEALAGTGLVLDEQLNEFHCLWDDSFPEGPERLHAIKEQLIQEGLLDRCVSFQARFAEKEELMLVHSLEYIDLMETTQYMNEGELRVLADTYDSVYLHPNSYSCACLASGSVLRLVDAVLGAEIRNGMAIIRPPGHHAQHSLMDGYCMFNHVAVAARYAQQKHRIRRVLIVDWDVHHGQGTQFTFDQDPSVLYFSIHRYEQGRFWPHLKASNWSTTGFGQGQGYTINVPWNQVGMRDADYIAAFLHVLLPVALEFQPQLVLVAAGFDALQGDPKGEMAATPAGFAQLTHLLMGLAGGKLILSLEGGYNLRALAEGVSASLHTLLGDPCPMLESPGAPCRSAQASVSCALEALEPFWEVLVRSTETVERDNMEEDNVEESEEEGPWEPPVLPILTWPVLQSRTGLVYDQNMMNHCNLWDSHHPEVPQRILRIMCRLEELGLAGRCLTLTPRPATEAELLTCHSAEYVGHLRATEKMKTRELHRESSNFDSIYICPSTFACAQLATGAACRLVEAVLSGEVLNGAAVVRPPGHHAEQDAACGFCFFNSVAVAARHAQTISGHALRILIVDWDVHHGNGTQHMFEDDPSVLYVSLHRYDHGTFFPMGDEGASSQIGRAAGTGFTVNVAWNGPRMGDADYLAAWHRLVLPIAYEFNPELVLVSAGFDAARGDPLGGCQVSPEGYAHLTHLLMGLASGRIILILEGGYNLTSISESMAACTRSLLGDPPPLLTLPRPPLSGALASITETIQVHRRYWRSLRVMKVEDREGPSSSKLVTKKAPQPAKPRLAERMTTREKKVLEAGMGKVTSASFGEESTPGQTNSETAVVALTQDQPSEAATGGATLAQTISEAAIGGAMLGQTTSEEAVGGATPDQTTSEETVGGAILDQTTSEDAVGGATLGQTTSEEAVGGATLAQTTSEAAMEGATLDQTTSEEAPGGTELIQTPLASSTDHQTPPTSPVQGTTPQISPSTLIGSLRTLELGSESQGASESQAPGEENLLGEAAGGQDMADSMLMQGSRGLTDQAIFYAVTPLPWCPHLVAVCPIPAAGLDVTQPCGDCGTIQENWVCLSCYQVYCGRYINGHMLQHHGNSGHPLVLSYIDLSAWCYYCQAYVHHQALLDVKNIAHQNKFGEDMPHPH
Briefly: Inhibition of recombinant human N-terminal GST-tagged HDAC6 (1 to 1215 residues) expressed in baculovirus infected insect cells using RHK-K(Ac)-AMC as substrate after 90 mins by fluorimetry analysis.

For another test, the target named is Histone deacetylase 1 (Homo sapiens, UniProt Q13547). Briefly: Inhibition of recombinant full length human C-terminal FLAG/His-tagged HDAC1 (1 to 482 residues) expressed in baculovirus infected Sf21 cells using RHK-K(Ac)-AMC as substrate measured after 60 mins by fluorimetric assay.
The test system of test [2] is SH-SY5Y. Briefly: Neuroprotective activity against OGD-induced hypoxic injury in human SH-SY5Y cells assessed as LDH release at 1 nM to 10 uM incubated under oxygen/glucose deprivation-induced hypoxic medium by LDH assay. Format: functional, cell-based. For orientation: LDH in the medium is a marker of cell lysis.
For test [3], the system named is SH-SY5Y. Briefly: Neuroprotective activity against OGD-induced hypoxic injury in human SH-SY5Y cells assessed as LDH release at 10 uM incubated under oxygen/glucose deprivation-induced hypoxic medium by LDH assay (reference value: 27.47 +/- 3.23 %). Format: functional.
Test [4] has as its system SH-SY5Y. Briefly: Neuroprotective activity against OGD-induced hypoxic injury in human SH-SY5Y cells assessed as LDH release at 5 uM incubated under oxygen/glucose deprivation-induced hypoxic medium by LDH assay (reference value: 27.47 +/- 3.23 %). The format is functional.
In test [5] the test system is SH-SY5Y. Briefly: Neuroprotective activity against OGD-induced hypoxic injury in human SH-SY5Y cells assessed as LDH release at 1 uM incubated under oxygen/glucose deprivation-induced hypoxic medium by LDH assay (reference value: 27.47 +/- 3.23 %). The format is functional.
In test [6] the test system is Mus musculus. Briefly: Anti-vascular cognitive impairment activity against bilateral common carotid artery occlusion-induced vascular dementia C57BL/6J mouse model assessed as improvement in short-term non-spatial working memory by measuring increase in novel object recognition at 25 mg/kg, ip administered post surgery measured after 1 month by novel object recognition test. Format: functional, organism-based.

The subject of test [7] is Mus musculus. Briefly: Anti-vascular cognitive impairment activity against bilateral common carotid artery occlusion-induced vascular dementia C57BL/6J mouse model assessed as improvement in short-term non-spatial working memory by measuring increase in novel object recognition at 25 mg/kg, ip administered post surgery measured after 3 months by novel object recognition test. Format: functional, organism-based.

In test [8] the test system is Mus musculus. Briefly: Anti-vascular cognitive impairment activity against bilateral common carotid artery occlusion-induced vascular dementia C57BL/6J mouse model assessed as reversal of hippocampal atrophy by measuring increase in ratio of size of hippocampus to lateral ventricle at 25 mg/kg, ip administered post surgery measured after 3 months by 7T-MRI analysis. The format is functional, organism-based.

For test [9], the system named is Mus musculus. Briefly: Anti-vascular cognitive impairment activity against bilateral common carotid artery occlusion-induced vascular dementia C57BL/6J mouse model assessed as ratio of cerebral blood flow in right parietal area at 25 mg/kg, ip administered post surgery measured after 3 months (reference value: 0.761 +/- 0.037). Format: functional.
Test [10] deals with Mus musculus. Briefly: Anti-vascular cognitive impairment activity against bilateral common carotid artery occlusion-induced vascular dementia C57BL/6J mouse model assessed as ratio of cerebral blood flow in left parietal area at 25 mg/kg, ip administered post surgery measured after 3 months(reference value: 0.792 +/- 0.029). The format is functional.
Test [11] concerns Mus musculus. Briefly: Upregulation of acetylated H3K14 protein expression in hippocampus of bilateral common carotid artery occlusion-induced vascular dementia C57BL/6J mouse model at 25 mg/kg, ip measured after 3 months by Western blot analysis. The format is functional, organism-based.
Test [12] concerns Mus musculus. Briefly: Anti-vascular cognitive impairment activity against bilateral common carotid artery occlusion-induced vascular dementia C57BL/6J mouse model assessed as reversal of hippocampal atrophy by measuring increase in hippocampal volume at 25 mg/kg, ip administered post surgery measured after 3 months by 7T-MRI analysis. The format is functional, organism-based.

Molecules are shown by their SMILES. Active and inactive are the calls of the source. No cut-off for these calls is given here.

For orientation: IC50 means the concentration that inhibits the measured activity by half.

Histone deacetylase 2, sequence (Q92769 whole entry, the tested form may be a part): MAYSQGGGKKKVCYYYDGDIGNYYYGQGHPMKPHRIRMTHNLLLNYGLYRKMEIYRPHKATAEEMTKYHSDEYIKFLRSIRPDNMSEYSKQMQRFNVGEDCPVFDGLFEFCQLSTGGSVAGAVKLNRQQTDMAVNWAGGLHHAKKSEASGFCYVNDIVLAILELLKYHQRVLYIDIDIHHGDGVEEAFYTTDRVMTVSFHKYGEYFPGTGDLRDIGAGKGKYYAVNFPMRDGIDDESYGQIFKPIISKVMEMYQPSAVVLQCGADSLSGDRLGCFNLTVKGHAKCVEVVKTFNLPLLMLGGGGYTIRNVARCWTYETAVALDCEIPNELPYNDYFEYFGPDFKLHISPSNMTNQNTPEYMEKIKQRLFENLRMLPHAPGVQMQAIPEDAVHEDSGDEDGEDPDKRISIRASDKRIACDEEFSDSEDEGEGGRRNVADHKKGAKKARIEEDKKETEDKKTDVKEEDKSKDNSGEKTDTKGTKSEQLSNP
Histone deacetylase 1, sequence (Q13547 whole entry, the tested form may be a part): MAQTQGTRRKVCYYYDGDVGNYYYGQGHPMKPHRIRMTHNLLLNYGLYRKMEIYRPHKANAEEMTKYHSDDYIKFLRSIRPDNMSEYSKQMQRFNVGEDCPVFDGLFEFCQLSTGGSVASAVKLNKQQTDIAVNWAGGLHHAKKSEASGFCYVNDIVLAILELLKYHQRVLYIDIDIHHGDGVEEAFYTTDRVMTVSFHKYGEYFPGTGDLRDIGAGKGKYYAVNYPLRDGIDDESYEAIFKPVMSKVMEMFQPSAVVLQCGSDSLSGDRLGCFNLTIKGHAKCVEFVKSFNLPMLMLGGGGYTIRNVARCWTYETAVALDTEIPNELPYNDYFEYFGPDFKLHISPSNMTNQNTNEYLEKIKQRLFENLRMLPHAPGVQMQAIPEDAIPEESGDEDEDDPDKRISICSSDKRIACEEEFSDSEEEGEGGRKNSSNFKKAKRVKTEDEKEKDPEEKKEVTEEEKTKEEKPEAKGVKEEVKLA

Turning to `O=C(CCC(=O)NCCCN1c2ccccc2CCc2ccc(Cl)cc21)NO`, the IC50 entry at Histone deacetylase 2 (sf21) is “Not Active”; at Histone deacetylase 8, greater than 10 µM; in [1], greater than 10 µM; on Histone deacetylase 1 (sf21) it was “Not Active”. In addition, the outcome with SH-SY5Y [2] was inactive.

With `O=C(CCCCC(=O)NCCCN1c2ccccc2CCc2ccc(Cl)cc21)NO`, the IC50 on Histone deacetylase 2 (read-out: IC50) stood at 9.62 µM; on Histone deacetylase 8, 3.09 µM; in [1] it was 2.07 µM; on Histone deacetylase 1 (read-out: IC50) it was 6.8 µM. In the test with SH-SY5Y [2], the outcome was inactive.

Take `O=C(/C=C/c1cccc(S(=O)(=O)NCCCN2c3ccccc3CCc3ccc(Cl)cc32)c1)NO`: the half-maximal inhibitory concentration (IC50) at Histone deacetylase 2 (read-out: IC50) turned out to be 8.48 µM; at Histone deacetylase 8, 2.16 µM; in test [1], 0.821 µM; at Histone deacetylase 1 (read-out: IC50), 6.05 µM.

For the compound `O=C(NO)c1ccc(C(=O)NCCCN2c3ccccc3CCc3ccc(Cl)cc32)cc1`, the IC50 at Histone deacetylase 2 (read-out: IC50) is 8.62 µM; at Histone deacetylase 8, 1.78 µM; in [1] it was 0.448 µM; at Histone deacetylase 1 (read-out: IC50), 7.28 µM. For the same compound, in the test with SH-SY5Y [3], the Activity was 30.74%.

In the case of `O=C(CCCCCCC(=O)NCCCN1c2ccccc2CCc2ccc(Cl)cc21)NO`, the IC50 entry on Histone deacetylase 2 (sf21) was “Not Active”; at Histone deacetylase 8, 2.33 µM; in [1] it was 0.658 µM; at Histone deacetylase 1 (sf21), “Not Active”. Moreover, the Activity in the test with SH-SY5Y [4] is 74.3%; in the test on SH-SY5Y [5], 43.16%; with SH-SY5Y [3], 97.21%.

For the compound `O=C(/C=C/c1ccc(S(=O)(=O)NCCCN2c3ccccc3CCc3ccc(Cl)cc32)cc1)NO`, the IC50 result was “Not Active” on Histone deacetylase 2 (sf21), 0.874 µM at Histone deacetylase 8, 0.762 µM in [1] and greater than 10 µM at Histone deacetylase 1 (read-out: IC50).

As to `O=C(CCCCCCCCC(=O)NCCCN1c2ccccc2CCc2ccc(Cl)cc21)NO`, the IC50 is 3.03 µM on Histone deacetylase 2 (read-out: IC50), 0.864 µM on Histone deacetylase 8, 0.142 µM in test [1] and 5.45 µM at Histone deacetylase 1 (read-out: IC50). Moreover, the Activity in the test with SH-SY5Y [4] is reported as 84.35%; in the test on SH-SY5Y [3] it was 65.87%.

`O=C(NO)c1ccc(CNCCCN2c3ccccc3CCc3ccc(Cl)cc32)cc1`: the IC50 result on Histone deacetylase 2 (sf21) is “Not Active”; on Histone deacetylase 8, 1.51 µM; in [1], 2.61 µM; at Histone deacetylase 1 (sf21), “Not Active”. Moreover, the result in the test with SH-SY5Y [2] was inactive.

For the compound `O=C(CCCCCCCC(=O)NCCCN1c2ccccc2CCc2ccc(Cl)cc21)NO`, the IC50 at Histone deacetylase 2 (read-out: IC50) is 2.74 µM; at Histone deacetylase 8, 1.07 µM; in test [1], 0.144 µM; at Histone deacetylase 1 (read-out: IC50) it was 3.4 µM. The Activity came out at 100.96% with SH-SY5Y [4] and 76.55% with SH-SY5Y [3].

In the case of `O=C(CCCC(=O)NCCCN1c2ccccc2CCc2ccc(Cl)cc21)NO`, the concentration for half-maximal inhibition (IC50) on Histone deacetylase 2 (read-out: IC50) came out at 5.96 µM; on Histone deacetylase 8 it was 1.85 µM; in test [1], 1.44 µM; at Histone deacetylase 1 (read-out: IC50), 5.1 µM. Further, in the test with SH-SY5Y [2], the outcome was inactive.

Take `O=C(CCCCCCC(=O)Nc1ccccc1)NO` [VORINOSTAT]: the result in the test on Mus musculus [6] was Active. Moreover, the result in the test with Mus musculus [7], with Mus musculus [8], with Mus musculus [11] and in the test with Mus musculus [12] was inactive. The Ratio in the test with Mus musculus [9] was determined as 0.83; in the test with Mus musculus [10] it was 0.878.

For `CN(C)CCCN1c2ccccc2CCc2ccc(Cl)cc21`, the result with SH-SY5Y [2] was inactive.

Take `O=C(CCCCCC(=O)NCCCN1c2ccccc2CCc2ccc(Cl)cc21)NO`: the IC50 came to 3.96 µM on Histone deacetylase 2 (read-out: IC50), 0.345 µM at Histone deacetylase 8, 0.0616 µM in test [1] and 2.14 µM on Histone deacetylase 1 (read-out: IC50). In addition, the Activity in the test with SH-SY5Y [4] came out at 86.54%; in the test on SH-SY5Y [3] it was 92.47%.

Values taken from ChEMBL document CHEMBL4602647, “Protective effects of 10,11-dihydro-5H-dibenzo[b,f]azepine hydroxamates on vascular cognitive impairment” (Eur J Med Chem, 2020).
